Key:
Assay in all cases: relative viability (nuclei count vs DMSO), 5 days (fraction); higher = more cells survive
201T = test system: 201T
In short: (§1)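 Dosing by pin tool came one day after lung cancer cell lines were seeded in 1536-well plates, using either one drug or a fixed anchor-drug dose plus five library-drug doses (not always all listed) in √10 steps. After 5 days, nuclei were counted on 4× images. Relative viability is treated-well nuclei count divided by vehicle-well nuclei count, and values are medians of duplicate plates.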

COR-L 105 = test system: COR-L 105
In short: as §1

NCI-H460 = test system: NCI-H460
In short: as §1

NCI-H3122 = test system: NCI-H3122
In short: as §1

LK-2 = test system: LK-2
In short: as §1

NCI-H1437 = test system: NCI-H1437
In short: as §1

NCI-H727 = test system: NCI-H727
In short: as §1

CAL-12T = test system: CAL-12T
In short: as §1

NCI-H1666 = test system: NCI-H1666
In short: as §1

HARA = test system: HARA
In short: as §1

NCI-H2009 = test system: NCI-H2009
In short: as §1

EKVX = test system: EKVX
In short: as §1

HCC-366 = test system: HCC-366
In short: as §1

ABC-1 = test system: ABC-1
In short: as §1

NCI-H441 = test system: NCI-H441
In short: as §1

PC-14 = test system: PC-14
In short: as §1

BEN = test system: BEN
In short: as §1

NCI-H661 = test system: NCI-H661
In short: as §1

LOU-NH91 = test system: LOU-NH91
In short: as §1

SMILES: COc1nc(C)cnc1NS(=O)(=O)c1cccnc1-c1ccc(-c2nnco2)cc1 [Zibotentan] + C[C@]1(O)C[C@@H](c2nc(-c3ccc4ccc(-c5ccccc5)nc4c3)c3c(N)nccn32)C1 [Linsitinib] (partner 1 µM)
- relative viability (201T; first compound 0.08 µM): 1
- relative viability (201T; first compound 0.253 µM): 1.02
- relative viability (201T; first compound 0.8 µM): 1.01
- relative viability (201T; first compound 2.53 µM): 1.13
- relative viability (COR-L 105; first compound 0.08 µM): 1.02
- relative viability (COR-L 105; first compound 0.253 µM): 0.871
- relative viability (COR-L 105; first compound 0.8 µM): 0.986
- relative viability (COR-L 105; first compound 2.53 µM): 0.919
- relative viability (NCI-H460; first compound 0.08 µM): 0.789
- relative viability (NCI-H460; first compound 0.8 µM): 0.803
- relative viability (NCI-H460; first compound 2.53 µM): 0.742
- relative viability (NCI-H3122; first compound 0.08 µM): 0.983
- relative viability (NCI-H3122; first compound 0.253 µM): 0.972
- relative viability (NCI-H3122; first compound 0.8 µM): 1
- relative viability (NCI-H3122; first compound 2.53 µM): 0.963
- relative viability (LK-2; first compound 0.08 µM): 0.709
- relative viability (LK-2; first compound 0.253 µM): 0.535
- relative viability (LK-2; first compound 2.53 µM): 0.701
- relative viability (NCI-H1437; first compound 0.08 µM): 1.21
- relative viability (NCI-H1437; first compound 0.253 µM): 1
- relative viability (NCI-H1437; first compound 0.8 µM): 0.939
- relative viability (NCI-H1437; first compound 2.53 µM): 1.07
- relative viability (NCI-H727; first compound 0.08 µM): 0.208
- relative viability (NCI-H727; first compound 0.253 µM): 0.322
- relative viability (NCI-H727; first compound 0.8 µM): 0.248
- relative viability (NCI-H727; first compound 2.53 µM): 0.314
- relative viability (CAL-12T; first compound 0.08 µM): 0.903
- relative viability (CAL-12T; first compound 0.253 µM): 0.876
- relative viability (CAL-12T; first compound 0.8 µM): 0.889
- relative viability (CAL-12T; first compound 2.53 µM): 0.634
- relative viability (NCI-H1666; first compound 0.08 µM): 0.656
- relative viability (NCI-H1666; first compound 0.253 µM): 0.709
- relative viability (NCI-H1666; first compound 0.8 µM): 0.877
- relative viability (NCI-H1666; first compound 2.53 µM): 0.825
- relative viability (HARA; first compound 0.08 µM): 1.24
- relative viability (HARA; first compound 0.253 µM): 0.945
- relative viability (HARA; first compound 0.8 µM): 0.955
- relative viability (HARA; first compound 2.53 µM): 0.902
- relative viability (NCI-H2009; first compound 0.08 µM): 1.14
- relative viability (NCI-H2009; first compound 0.253 µM): 1.05
- relative viability (NCI-H2009; first compound 0.8 µM): 1.2
- relative viability (NCI-H2009; first compound 2.53 µM): 1.22
- relative viability (EKVX; first compound 0.08 µM): 1.02
- relative viability (EKVX; first compound 0.253 µM): 1.02
- relative viability (EKVX; first compound 0.8 µM): 0.777
- relative viability (EKVX; first compound 2.53 µM): 1.16
- relative viability (HCC-366; first compound 0.08 µM): 0.7
- relative viability (HCC-366; first compound 0.253 µM): 0.586
- relative viability (HCC-366; first compound 0.8 µM): 0.518
- relative viability (HCC-366; first compound 2.53 µM): 0.794
- relative viability (ABC-1; first compound 0.08 µM): 0.775
- relative viability (ABC-1; first compound 0.253 µM): 0.803
- relative viability (ABC-1; first compound 0.8 µM): 1.01
- relative viability (ABC-1; first compound 2.53 µM): 0.822
- relative viability (NCI-H441; first compound 0.08 µM): 0.634
- relative viability (NCI-H441; first compound 0.253 µM): 0.552
- relative viability (NCI-H441; first compound 0.8 µM): 0.633
- relative viability (NCI-H441; first compound 2.53 µM): 0.535
- relative viability (PC-14; first compound 0.08 µM): 1
- relative viability (PC-14; first compound 0.253 µM): 0.888
- relative viability (PC-14; first compound 0.8 µM): 0.937
- relative viability (PC-14; first compound 2.53 µM): 1.02
- relative viability (BEN; first compound 0.08 µM): 1.04
- relative viability (BEN; first compound 0.253 µM): 0.773
- relative viability (BEN; first compound 0.8 µM): 0.958
- relative viability (BEN; first compound 2.53 µM): 0.886
- relative viability (NCI-H661; first compound 0.08 µM): 0.545
- relative viability (NCI-H661; first compound 0.253 µM): 0.486
- relative viability (NCI-H661; first compound 0.8 µM): 0.518
- relative viability (NCI-H661; first compound 2.53 µM): 0.68
- relative viability (LOU-NH91; first compound 0.08 µM): 0.94
- relative viability (LOU-NH91; first compound 0.253 µM): 0.836
- relative viability (LOU-NH91; first compound 0.8 µM): 0.982
- relative viability (LOU-NH91; first compound 2.53 µM): 1.02

Source: the supplement of paper PMC10307832
